Data on one compound can be found in patent publication US9943528B2 (MAPREG, priority 2016, dated 2018).

One assay relates to GABA (non-selective). The assay can be described thus: CNS receptor binding assay, GABA. Particulars: MAP4343 10 μM; [3H] GABA; rat cerebral cortex. An excerpt: MAP4343 has been screened for in vitro affinity to 80 different CNS neurotransmitters receptors using various validated binding assays.
The subject of assay [1] is Wistar Kyoto (WKY) rats. The assay can be described thus: Neurogenesis in dentate gyrus of hippocampus (BrdU/NeuN) in WKY rats. It counts as in vivo, rat. Particulars: chronic MAP4343 15 mg/kg, s.c., 24 days, FIG. 9C. As to the method: (§1) Wistar Kyoto (WKY) rats are considered as a model of treatment-resistant depression, while Wistar (WI) rats are used as control strain of WKY rats. During this experiment both WI and WKY rats were administered with MAP4343 (15 mg/Kg), subcutaneously (s.c.) for 24 days. Behavioral tests were performed at during the last week of treatment, and rats were finally sacrificed for addressing neurogenesis in Gyrus dentate of hippocampus using histological experiments. Organization of this protocol is depicted in FIG. 7.
(§2) MAP4343 was diluted in sesame oil, and then administered subcutaneously (s.c.) at the dose of 15 mg/kg during 24 days. The vehicle group received only the sesame oil (1 ml/kg) in the similar conditions.
Injections of BrdU were performed twice at D0, 24 and 22 hours before the beginning of treatment. All animals were equally given two injections of BrdU (75 mg/kg, dissolved in saline solution intraperitoneally), at two hours pulse-chase interval. […]
Neurogenesis in each dentate gyrus was manually measured by quantification of positive cells co-labelled with BrdU/NeuN, using a microscope equipped with epifluorescence (Zeiss Axiovert 200, objective 40×). Total number of new neurons in the entire dentate gyrus was estimated by multiplying the measured number by 8 (that corresponds to the number of unused sections separating each coronal sections used to count the newly-formed neurons). […]

The test system of assay [2] is Wistar Kyoto (WKY) rats. The experiment in a line: Novel object recognition (NOR) test in WKY rats, chronic administration. It counts as in vivo, rat. As to conditions: MAP4343 15 mg/kg, s.c., 24 days. The method, then: as §1, §2
The NOR task is a test of recognition memory based on the spontaneous preference of rats for novelty. The applied procedure was based on that previously described by Ennaceur and Delacour (1988). NOR task was performed at D21 of the treatment period (see FIG. 7). In a first session (habituation, 5 min), each rat was familiarized with two identical objects placed in the border of the open-field area (70×100×70 cm). In a second session performed 1 h after (novel object recognition, 5 min), one of the two familiar objects was replaced by a novel object. […] Results are given as exploratory time for the novel object and the total exploratory time.

In the case of `CO[C@H]1CC[C@@]2(C)C(=CC[C@H]3[C@@H]4CC[C@H](C(C)=O)[C@@]4(C)CC[C@@H]32)C1` [MAP4343, 3β-methoxy-pregna-5-ene-20-one], in the assay with GABA (non-selective), the “% Inhibition of control specific binding” value is on record as 2%. In the assay on Wistar Kyoto (WKY) rats [1], the “number of newly-formed neurons (BrdU and Neu-N) in dentate gyrus, change vs WKY receiving only vehicle” value was “+71%”. Besides, the “time spent with the novel object in NOR, change vs WKY receiving only vehicle” value with Wistar Kyoto (WKY) rats [2] (FIG. 8B) is “+58%”. The “total exploratory time in NOR, change vs WKY receiving only vehicle” value in the assay on Wistar Kyoto (WKY) rats [2] (FIG. 8C) is reported as “+41%”.
